What is called IC50 is the concentration that gives 50% inhibition.

The target in this experiment is RBP4 (Homo sapiens, UniProt P02753). The note with it: read-out: RBP4 – SPA IC50.

For the molecule `O=C(c1nc2ncccn2n1)N1C[C@H]2C[C@@H](c3ccccc3OC(F)(F)F)C[C@H]2C1` [compound 93], the IC50 turned out to be 0.041 µM. For the molecule `Cc1cc(-c2nnn[nH]2)nc(N2C[C@H]3C[C@@H](c4ccccc4C(F)(F)F)C[C@H]3C2)n1` [BPN-15585], the half-inhibitory concentration (IC50) came out at 0.0075 µM.

The values above are taken from article doi:10.64898/2026.09.14.751502v1 (bioRxiv, 2026).
